# Results taken from PubChem BioAssay (NCI).
#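 Test compounds were applied to cells in 96-well plates for 48 hours at 5 doses. The concentration for 50% growth inhibition is given as GI50. TGI marks complete inhibition of growth.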
# What was measured:
# Experiment in all cases: inhibition of tumour cell growth, NCI panel, 48 h
# 786-0 renal = tested on: 786-0 renal
# A498 renal = tested on: A498 renal
# A549 NSCLC = tested on: A549 NSCLC
# ACHN renal = tested on: ACHN renal
# BT-549 breast = tested on: BT-549 breast
# CAKI-1 renal = tested on: CAKI-1 renal
# CCRF-CEM leukemia = tested on: CCRF-CEM leukemia
# COLO 205 colon = tested on: COLO 205 colon
# DU-145 prostate = tested on: DU-145 prostate
# EKVX NSCLC = tested on: EKVX NSCLC
# HCC-2998 colon = tested on: HCC-2998 colon
# HCT-116 colon = tested on: HCT-116 colon
# HCT-15 colon = tested on: HCT-15 colon
# HL-60(TB) leukemia = tested on: HL-60(TB) leukemia
# HOP-62 NSCLC = tested on: HOP-62 NSCLC
# HOP-92 NSCLC = tested on: HOP-92 NSCLC
# HS 578T breast = tested on: HS 578T breast
# HT29 colon = tested on: HT29 colon
# IGROV1 ovarian = tested on: IGROV1 ovarian
# K-562 leukemia = tested on: K-562 leukemia
# KM12 colon = tested on: KM12 colon
# LOX IMVI melanoma = tested on: LOX IMVI melanoma
# M14 melanoma = tested on: M14 melanoma
# MCF7 breast = tested on: MCF7 breast
# MDA-MB-231 breast = tested on: MDA-MB-231 breast
# MDA-MB-435 = tested on: MDA-MB-435
# NCI-H226 lung = tested on: NCI-H226 lung
# NCI-H23 lung = tested on: NCI-H23 lung
# NCI-H460 lung = tested on: NCI-H460 lung
# NCI-H522 lung = tested on: NCI-H522 lung
# NCI/ADR-RES ovarian = tested on: NCI/ADR-RES ovarian
# OVCAR-3 ovarian = tested on: OVCAR-3 ovarian
# OVCAR-4 ovarian = tested on: OVCAR-4 ovarian
# OVCAR-5 ovarian = tested on: OVCAR-5 ovarian
# OVCAR-8 ovarian = tested on: OVCAR-8 ovarian
# RPMI-8226 leukemia = tested on: RPMI-8226 leukemia
# RXF 393 renal = tested on: RXF 393 renal
# SF-268 CNS = tested on: SF-268 CNS
# SF-295 CNS = tested on: SF-295 CNS
# SF-539 CNS = tested on: SF-539 CNS
# SK-MEL-2 melanoma = tested on: SK-MEL-2 melanoma
# SK-MEL-28 melanoma = tested on: SK-MEL-28 melanoma
# SK-OV-3 ovarian = tested on: SK-OV-3 ovarian
# SN12C renal = tested on: SN12C renal
# SNB-19 CNS = tested on: SNB-19 CNS
# SNB-75 CNS = tested on: SNB-75 CNS
# SR leukemia = tested on: SR leukemia
# SW-620 colon = tested on: SW-620 colon
# T-47D breast = tested on: T-47D breast
# TK-10 renal = tested on: TK-10 renal
# U251 CNS = tested on: U251 CNS
# UACC-257 melanoma = tested on: UACC-257 melanoma
# UACC-62 melanoma = tested on: UACC-62 melanoma
# UO-31 renal = tested on: UO-31 renal
compound,measurement,setting,value
COC12C=C/C(=C(/C(=O)OCc3cncnc3)C(=O)CCCCCCCCC3(OC)C=C/C(=C(/C(=O)OCc4cncnc4)C(=O)CCCCCCCC1)O3)O2,GI50,786-0 renal,433 nM
same,TGI,786-0 renal,1470 nM
same,GI50,A498 renal,961 nM
same,TGI,A498 renal,1700 nM
same,GI50,A549 NSCLC,848 nM
same,TGI,A549 NSCLC,2240 nM
same,GI50,ACHN renal,360 nM
same,TGI,ACHN renal,1080 nM
same,GI50,BT-549 breast,188 nM
same,TGI,BT-549 breast,2070 nM
same,GI50,CAKI-1 renal,667 nM
same,TGI,CAKI-1 renal,2110 nM
same,GI50,CCRF-CEM leukemia,196 nM
same,TGI,CCRF-CEM leukemia,3790 nM
same,GI50,COLO 205 colon,587 nM
same,TGI,COLO 205 colon,2250 nM
same,GI50,DU-145 prostate,500 nM
same,TGI,DU-145 prostate,2550 nM
same,GI50,EKVX NSCLC,717 nM
same,TGI,EKVX NSCLC,2390 nM
same,GI50,HCC-2998 colon,821 nM
same,TGI,HCC-2998 colon,1610 nM
same,GI50,HCT-116 colon,146 nM
same,TGI,HCT-116 colon,433 nM
same,GI50,HCT-15 colon,308 nM
same,TGI,HCT-15 colon,1340 nM
same,GI50,HL-60(TB) leukemia,387 nM
same,TGI,HL-60(TB) leukemia,2820 nM
same,GI50,HOP-62 NSCLC,624 nM
same,TGI,HOP-62 NSCLC,2970 nM
same,GI50,HOP-92 NSCLC,1000 nM
same,TGI,HOP-92 NSCLC,2180 nM
same,GI50,HS 578T breast,1300 nM
same,TGI,HS 578T breast,6240 nM
same,GI50,HT29 colon,210 nM
same,TGI,HT29 colon,1090 nM
same,GI50,IGROV1 ovarian,589 nM
same,TGI,IGROV1 ovarian,1960 nM
same,GI50,K-562 leukemia,188 nM
same,TGI,K-562 leukemia,1140 nM
same,GI50,KM12 colon,305 nM
same,TGI,KM12 colon,1280 nM
same,GI50,LOX IMVI melanoma,155 nM
same,TGI,LOX IMVI melanoma,524 nM
same,GI50,M14 melanoma,167 nM
same,TGI,M14 melanoma,1610 nM
same,GI50,MCF7 breast,209 nM
same,TGI,MCF7 breast,2320 nM
same,GI50,MDA-MB-231 breast,597 nM
same,TGI,MDA-MB-231 breast,> 50000 nM
same,GI50,MDA-MB-435,99 nM
same,TGI,MDA-MB-435,208 nM
same,GI50,NCI-H226 lung,656 nM
same,TGI,NCI-H226 lung,1650 nM
same,GI50,NCI-H23 lung,186 nM
same,TGI,NCI-H23 lung,839 nM
same,GI50,NCI-H460 lung,710 nM
same,TGI,NCI-H460 lung,1910 nM
same,GI50,NCI-H522 lung,137 nM
same,TGI,NCI-H522 lung,408 nM
same,GI50,NCI/ADR-RES ovarian,609 nM
same,TGI,NCI/ADR-RES ovarian,> 50000 nM
same,GI50,OVCAR-3 ovarian,195 nM
same,TGI,OVCAR-3 ovarian,1070 nM
same,GI50,OVCAR-4 ovarian,548 nM
same,TGI,OVCAR-4 ovarian,2810 nM
same,GI50,OVCAR-5 ovarian,783 nM
same,TGI,OVCAR-5 ovarian,2030 nM
same,GI50,OVCAR-8 ovarian,207 nM
same,TGI,OVCAR-8 ovarian,> 50000 nM
same,GI50,RPMI-8226 leukemia,207 nM
same,TGI,RPMI-8226 leukemia,3550 nM
same,GI50,RXF 393 renal,199 nM
same,TGI,RXF 393 renal,714 nM
same,GI50,SF-268 CNS,312 nM
same,TGI,SF-268 CNS,4000 nM
same,GI50,SF-295 CNS,326 nM
same,TGI,SF-295 CNS,1740 nM
same,GI50,SF-539 CNS,952 nM
same,TGI,SF-539 CNS,2470 nM
same,GI50,SK-MEL-2 melanoma,1130 nM
same,TGI,SK-MEL-2 melanoma,18100 nM
same,GI50,SK-MEL-28 melanoma,325 nM
same,TGI,SK-MEL-28 melanoma,1650 nM
same,GI50,SK-OV-3 ovarian,1230 nM
same,TGI,SK-OV-3 ovarian,5310 nM
same,GI50,SN12C renal,404 nM
same,TGI,SN12C renal,1980 nM
same,GI50,SNB-19 CNS,458 nM
same,TGI,SNB-19 CNS,> 50000 nM
same,GI50,SNB-75 CNS,1190 nM
same,TGI,SNB-75 CNS,6840 nM
same,GI50,SR leukemia,155 nM
same,TGI,SR leukemia,6610 nM
same,GI50,SW-620 colon,190 nM
same,TGI,SW-620 colon,1190 nM
same,GI50,T-47D breast,232 nM
same,TGI,T-47D breast,> 50000 nM
same,GI50,TK-10 renal,689 nM
same,TGI,TK-10 renal,1930 nM
same,GI50,U251 CNS,212 nM
same,TGI,U251 CNS,1060 nM
same,GI50,UACC-257 melanoma,937 nM
same,TGI,UACC-257 melanoma,2940 nM
same,GI50,UACC-62 melanoma,533 nM
same,TGI,UACC-62 melanoma,1210 nM
same,GI50,UO-31 renal,542 nM
same,TGI,UO-31 renal,1280 nM
